This is an account of results in patent publication US20230105701A1, “DISSOLUTION-ENHANCED OLAPARIB COMPOSITION” (SHANGHAI INSTITUTE OF MATERIA MEDICA, CHINESE ACADEMY OF …, priority 2020, published 2023).

For data set [1] the following is noted: cited from earlier work.
The conditions of data set [2]: within the physiological pH range; cited from earlier work.
Data set [3] is described as follows: Solubility test (supersaturated solubility by HPLC). The conditions noted are these: pH 4.0 citric acid/disodium hydrogen phosphate buffer, aqueous buffer, thermodynamic from solid, pH 4.0 citrate buffer, 37° C., shaker 100 rpm, equivalent to 10 mg olaparib in 5 ml, average of 2 runs. Type of data set: physicochemical. As for the experimental part: The dissolution-enhanced olaparib compositions prepared in Preparation Examples 1-3 and Comparative Examples 1-8 and the olaparib API (free base) were taken in an amount equivalent to 10 mg of olaparib, dispersed in 5 ml of a pH 4.0 buffer (citric acid: 21 g/L: disodium hydrogen phosphate 71.63 g/L=61.45:38.55) as the solvent and shaken in a shaker at 100 rpm for 2 h at 37° C., and sampled. The samples were centrifugal filtered and measured by HPLC to determine the supersaturated solubility. The average value was obtained from 2 parallel runs.
The operation conditions of the HPLC were:
Apparatus: A liquid chromatograph with a UV detector;
Chromatographic Waters Sunfire C18, 4.6 mm*50 mm
Eluent: A: 0.1% TFA in water; B: 0.1% TFA in acetonitrile;

On to `O=C(c1cc(Cc2n[nH]c(=O)c3ccccc23)ccc1F)N1CCN(C(=O)C2CC2)CC1` [Olaparib API, 1-(cyclopropanoyl)-4-[5-[(3,4-dihydro-4-oxo-1-phthalazinyl)methyl]-2-fluorobenzoyl]piperazine], for which, in data set [1], the permeability result is “medium”. For the same compound, the solubility (commonly the dissolved amount per volume that the medium holds) in data set [2] is listed as “less than 0.2 mg/ml”. Moreover, the solubility at 2 h in data set [3] amounted to 118 µg/mL.
